Assay results published in ChEMBL document CHEMBL5584353, “Design, Synthesis, and Biological Evaluation of Potent EZH2/LSD1 Dual Inhibitors for Prostate Cancer” (J Med Chem, 2024).
Activity calls are given as the source filed them. No cut-off for these calls is given here.

Assays:
MDA-MB-231 = assay: Antiproliferative activity against human MDA-MB-231 cells assessed as inhibition of cell growth incubated for 6 to 7 days by MTS assay; assay type: functional, cell-based; conditions: time 6-7 day
[1] = target: T1, Lysine-specific histone demethylase 1A (Homo sapiens, UniProt O60341); assay: Inhibition of LSD1 in human 22Rv1 cells assessed as downregulation of AR-V7 expression at 1 to 20 uM incubated for 48 hrs by Western blotting analysis; assay type: cell-based; conditions: dose 1-20 µM
[2] = Metabolic stability in Sprague-Dawley rat hepatocyte assessed as intrinsic clearance at 20 uM incubated for 60 mins by HPLC-MS/MS analysis; assay type: ADME, cell-based; conditions: hepatocytes, 1 h
LNCaP [3] = assay: Antimigratory activity in human LNCaP cells assessed as upregulation of E-cadherin expression at 3 to 10 uM incubated for 48 hrs by Western blotting analysis; assay type: functional, cell-based; conditions: dose 3-10 µM
SU-DHL-2 = assay: Antiproliferative activity against human SU-DHL-2 cells assessed as inhibition of cell growth incubated for 6 to 7 days by MTS assay; assay type: functional, cell-based; conditions: time 6-7 day
[4] = target: T1, Lysine-specific histone demethylase 1A; assay: Inhibition of LSD1 in human LNCaP cells assessed as upregulation of H3K9me2 expression at 1 to 5 uM incubated for 5 days by Western blotting analysis; assay type: cell-based; conditions: dose 1-5 µM, time 5.0 day
LNCaP [5] = assay: Antiproliferative activity against human LNCaP cells assessed as inhibition of cell growth incubated for 6 to 7 days by MTS assay; assay type: functional, cell-based; conditions: time 6-7 day
[6] = target: T1, Lysine-specific histone demethylase 1A; assay: Inhibition of LSD1 in human PC-3 cells assessed as upregulation of H3K4me2 expression at 1 to 5 uM incubated for 5 days by Western blotting analysis; assay type: cell-based; conditions: dose 1-5 µM, time 5.0 day
CWR22R [7] = assay: Antitumor activity against human 22Rv1 cells xenografted in BALB/c mouse assessed as reduction in tumor weight at 80 mg/kg,ip administrated daily for 31 days; assay type: functional, organism-based; conditions: time 31.0 day
PC-3 [8] = assay: Growth inhibition of human PC-3 cells incubated for 6 to 7 days by MTS assay; assay type: functional; conditions: time 6-7 day
CWR22R [9] = assay: Synergistic antiproliferative activity against human 22Rv1 cells assessed as inhibition of cell growth at 6.25 to 100 uM incubated for 6 to 7 days in presence of enzalutamide by MTS assay; assay type: functional, cell-based; conditions: dose 6.25-100 µM, time 6-7 day
LNCaP [10] = assay: Antimigratory activity in human LNCaP cells assessed as downregulation of N-cadherin expression at 3 to 10 uM incubated for 48 hrs by Western blotting analysis; assay type: functional, cell-based; conditions: dose 3-10 µM
CWR22R [11] = assay: Induction of apoptosis in human 22Rv1 cells assessed as upregulation of cleaved PARP expression incubated for 48 hr by Western blotting analysis; assay type: functional, cell-based
CWR22R [12] = conditions: Homo sapiens, dose 80.0 mg/kg, route ip, time 31.0 day
[13] = Metabolic stability in Sprague-Dawley rat hepatocyte assessed as compound remaining at 20 uM incubated for 120 mins by HPLC-MS/MS analysis; assay type: ADME, cell-based; conditions: hepatocytes, read-out: Stability
[14] = Toxicity in BALB/c mouse xenografted with human 22Rv1 cells assessed as spleen morphological change at 80 mg/kg,ip administrated daily for 31 days; assay type: organism-based, CWR22R; conditions: in vivo, 744 h, time 31 day
[15] = target: T2, Histone-lysine N-methyltransferase EZH1 (Homo sapiens, UniProt Q92800); assay: Inhibition of EZH1 (unknown origin)
T2 sequence (Q92800 whole entry): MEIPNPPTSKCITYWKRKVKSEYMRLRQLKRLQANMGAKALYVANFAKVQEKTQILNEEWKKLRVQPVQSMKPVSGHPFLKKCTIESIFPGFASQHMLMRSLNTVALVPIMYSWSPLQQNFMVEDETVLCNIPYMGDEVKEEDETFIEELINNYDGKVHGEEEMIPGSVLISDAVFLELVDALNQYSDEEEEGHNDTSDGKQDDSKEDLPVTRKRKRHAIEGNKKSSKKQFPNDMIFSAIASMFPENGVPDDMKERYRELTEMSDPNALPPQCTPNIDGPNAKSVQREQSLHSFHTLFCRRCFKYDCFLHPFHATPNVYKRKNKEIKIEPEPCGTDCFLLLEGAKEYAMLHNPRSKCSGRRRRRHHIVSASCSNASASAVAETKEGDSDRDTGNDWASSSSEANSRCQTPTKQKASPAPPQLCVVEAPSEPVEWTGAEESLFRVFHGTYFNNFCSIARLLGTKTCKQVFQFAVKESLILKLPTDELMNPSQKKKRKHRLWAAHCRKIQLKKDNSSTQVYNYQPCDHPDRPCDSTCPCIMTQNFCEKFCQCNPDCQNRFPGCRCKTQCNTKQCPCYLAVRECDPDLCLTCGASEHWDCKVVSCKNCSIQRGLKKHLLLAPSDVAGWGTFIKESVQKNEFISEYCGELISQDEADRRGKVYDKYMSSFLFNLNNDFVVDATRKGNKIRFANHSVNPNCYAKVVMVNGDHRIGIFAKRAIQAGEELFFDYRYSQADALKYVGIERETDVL

[16] = Cytotoxicity against human HPNE cells incubated for 6 to 7 days by MTS assay; assay type: toxicity, cell-based; conditions: time 6-7 day
PC-3 [17] = assay: Induction of apoptosis in human PC-3 cells at 1 to 10 uM incubated for 5 days by Annexin V-FITC/PI staining based flow cytometric analysis; assay type: functional, cell-based; conditions: dose 1-10 µM, time 5.0 day
CWR22R [18] = assay: Induction of apoptosis in human 22Rv1 cells assessed as upregulation of p21 expression incubated for 48 hr by Western blotting analysis; assay type: functional, cell-based
[19] = Half life in BALB/c mouse at 50 mg/kg,po measured upto 24 hrs by HPLC-MS/MS analysis; assay type: ADME, organism-based; conditions: in vivo
NCI-H292 = assay: Antiproliferative activity against human NCI-H292 cells assessed as inhibition of cell growth incubated for 6 to 7 days by MTS assay; assay type: functional, cell-based; conditions: time 6-7 day
LNCaP [20] = assay: Induction of apoptosis in human LNCaP cells at 1 to 10 uM incubated for 5 days by Annexin V-FITC/PI staining based flow cytometric analysis; assay type: functional, cell-based; conditions: dose 1-10 µM, time 5.0 day
CWR22R [21] = assay: Antitumor activity against human 22Rv1 cells xenografted in BALB/c mouse assessed as tumor growth inhibition at 80 mg/kg,ip administrated daily for 31 days relative to control; assay type: functional; conditions: 22Rv1, 744 h, time 31 day, read-out: TGI
[22] = target: T1, Lysine-specific histone demethylase 1A; assay: Inhibition of LSD1 in human PC-3 cells assessed as upregulation of H3K9me2 expression at 1 to 5 uM incubated for 5 days by Western blotting analysis; assay type: cell-based; conditions: dose 1-5 µM, time 5.0 day
[23] = Half life in BALB/c mouse at 50 mg/kg,iv measured upto 24 hrs by HPLC-MS/MS analysis; assay type: ADME, organism-based; conditions: in vivo
[24] = Metabolic stability in Sprague-Dawley rat hepatocyte assessed as compound remaining at 20 uM by HPLC-MS/MS analysis; assay type: ADME, cell-based; conditions: hepatocytes, read-out: Stability
CWR22R [25] = assay: Antimigratory activity in human 22Rv1 cells assessed as upregulation of E-cadherin expression at 3 to 10 uM incubated for 48 hrs by Western blotting analysis; assay type: functional, cell-based; conditions: dose 3-10 µM
[26] = Cmax in BALB/c mouse at 50 mg/kg,po measured upto 24 hrs by HPLC-MS/MS analysis; assay type: ADME, organism-based; conditions: in vivo
[27] = Toxicity in BALB/c mouse xenografted with human 22Rv1 cells assessed as liver morphological change at 80 mg/kg,ip administrated daily for 31 days; assay type: organism-based, CWR22R; conditions: in vivo, 744 h, time 31 day

Structure (SMILES): CCN(c1cc(-c2ccc([C@@H]3C[C@H]3N(CC3CCOCC3)C(=O)OC(C)(C)C)cc2)cc(C(=O)NCc2c(C)cc(C)[nH]c2=O)c1C)C1CCOCC1 (racemic)
- Activity (MDA-MB-231): Active
- inhibition [1]: Active
- CLH [2]: 4 µL/min/mg
- Activity (LNCaP [3]): Active
- Activity (SU-DHL-2): Active
- inhibition [4]: Active
- Activity (LNCaP [5]): Active
- inhibition [6]: Active
- Activity (CWR22R [7]): Active
- GI50 (PC-3 [8]): 1040 nM
- Activity (CWR22R [9]): Active
- Activity (LNCaP [10]): Active
- Activity (CWR22R [11]): Dose-Dependent Effect
- inhibition (CWR22R [12]): Active
- remaining at 2 h, 20 µM [13]: 75.8%
- Activity [14]: Non-Toxic
- IC50 [15]: 2160 nM
- Activity [16]: Non-Toxic
- Activity (PC-3 [17]): Active
- Activity (CWR22R [18]): Dose-Dependent Effect
- half-life [19]: 3.5 h
- Activity (NCI-H292): Active
- Activity (LNCaP [20]): Active
- inhibition in vivo at 80 mg/kg (CWR22R [21]): 52.2%
- inhibition [22]: Active
- half-life [23]: 2.5 h
- remaining at 20 µM [24]: 100%
- Activity (CWR22R [25]): Active
- Cmax [26]: 7410 ng/mL
- Activity [27]: Non-Toxic
